Consider 16 molecules from paper PMC6881481, “Integrative Multi-Kinase Approach for the Identification of Potent Antiplasmodial Hits” (Frontiers in Chemistry, 2019).

In data set [1] the test system is P. falciparum 3D7 (sensitive) strain, asexual blood stage. Put plainly: Plasmodium growth inhibition by SYBR Green I, 3D7 strain. It is filed as cell-based. The method, then: (§1) Parasite cultures (3D7 and Dd2 strains) were maintained in O^+ human erythrocytes in RPMI 1640 medium supplemented with 0.05 mg/mL gentamycin, 38.4 mM HEPES, 0.2% sodium bicarbonate, and 10% O^+ human serum as described before (Trager and Jensen, [1976]). To achieve a synchronic culture in the ring stage, two consecutive treatments at 48 h intervals with a 5% solution of D-sorbitol were done (Lambros and Vanderberg, [1979]).
(§2) Synchronized ring-stage (> 90%) infected erythrocytes were dispensed in duplicate into 96-well plates (0.5% parasitemia, 1% hematocrit) and incubated in dose response format with test compounds for 72 h. Chloroquine was used as an antimalarial control and uninfected erythrocytes as negative control. Then, in vitro susceptibility of parasite to tested drug was measured by SYBR Green (Hartwig et al., [2013]). Following incubation, the plates were frozen and thawed, and 100 μL of the culture were transferred to a new black 96-well plate containing 100 μL of lysis buffer (20 mM Tris, 5 mM EDTA, 0.008% wt/vol saponin, 0.08% vol/vol Triton X-100, and 0.4 μL/mL of SYBR Green). After 1 h, the fluorescence was measured at 490 nm excitation and 540 nm emission (CLARIOstar, Labtech BMG). […] The EC50 was calculated by plotting the Log doses vs. Inhibition (expressed as a percentage relative to the control) in Prism 6 (GraphPad Software Inc.). Each test was performed at least three independent experiments.

Data set [2] relates to P. falciparum Dd2 (multi-drug-resistant) strain, asexual blood stage. Put plainly: Plasmodium growth inhibition by SYBR Green I, Dd2 strain. Format: cell-based. Conditions: read-out: EC50 Dd2. The method, then: as §1, §2
The nature of data set [3]: Cytotoxicity assay (MTT reduction), COS7 cells. It is filed as cell-based, monkey. The note with it: monkey, COS7 cells (fibroblast-like, monkey kidney); COS7 cells, 72 h, mean ± SD. The method, then: (§3) The cytotoxicity was evaluated using two different lineages of mammalian cells: fibroblast-like cell lines derived from monkey kidney tissue (COS7 cells) and human hepatoma cell line (HEPG2). The cells were grown in 75 cm^2 flasks containing DMEM medium supplemented with 10% fetal bovine serum and 0.05 mg/mL gentamicin under a 5% CO2 atmosphere at 37°C. After harvest of cells, 100 μL aliquots were distributed in 96-well plates (1 x 10^4 cells per well) and incubated until adhesion (~12 h). The compounds at various concentrations (100−0.048 μM) were placed in the wells in duplicate and incubated for 72 h. The cell viability analysis were done by the MMT reduction method (3-[4,5-dimethyl-thiazol-2-yl]-2,5-diphenyltetrazolium […]), after the incubation period (Mosmann, [1983]). The optical density was determined at 570 nm (CLARIOstar, Labtech BMG) and the 50% cytotoxicity concentrations (CC50) were expressed as the percent viability relative to the control (untreated cells). The selectivity index of the compounds was determined through the ratio of the CC50 of both cytotoxicity results (COS7 and HEPG2 cells) and EC50 3D7, separately. Experiments were performed at least three times.

A further data set relates to COS7 cells. The data set can be described thus: Cytotoxicity assay (MTT reduction), COS7 cells. Conditions: for SI* (selectivity index between CC50 COS7 and EC50 3D7 strain): CC50 COS7 / EC50 3D7; for selectivity indices: mammalian cells vs 3D7 (abstract). It is filed as cell-based, monkey. As to the method:
as §3

Data set [4] in a line: Cytotoxicity assay (MTT reduction), HEPG2 cells. Format: cell-based, human. Conditions: human, HEPG2 cells (human hepatoma); HEPG2 cells, 72 h, mean ± SD. As to the method: as §3
The test system of a further data set is HEPG2 cells. The data set can be described thus: Cytotoxicity assay (MTT reduction), HEPG2 cells. The note with it: CC50 HEPG2 / EC50 3D7. It is filed as cell-based, human. The method, then: as §3
In data set [5] the test system is P. berghei Ookluc line ookinete formation. The data set can be described thus: Inhibition of P. berghei sexual stage progression (ookinete conversion, nLuc). It is filed as cell-based. Conditions: Plasmodium berghei, 24 h at 21°C, mean ± SD. The method, then: Balb/c mice were infected intraperitoneally with the P. berghei Ookluc line (Calit et al., [2018]). Four to five days after infection, the infected blood was collected by cardiac puncture and 4 μL were seeded to a volume of 80 μL of ookinete medium (Blagborough et al., [2013]), at 21°C, containing 10 μM of compounds or DMSO vehicle control. After 24h incubation at 21°C, the nLuc substrate (Nano-Glo, Promega) was added to each well 1:1 (v:v) and incubated for 5 min at 37°C. The luciferase activity was measured using a plate luminometer SpectraMax i3; Molecular Devices and the % of conversion inhibition were calculated relative to the luciferase activity in the control assays. This assay was approved by the Ethics Committee (protocol number 132/2014-CEUA) of the Institute of Biomedical Sciences—University of São Paulo.

Another data set deals with P. falciparum PK6. Also on record: method as in ref Crowther et al., 2016; National Center for Biotechnology Information, 2016c. The note with it: query of shape-based model, ref Crowther et al., 2016, National Center for Biotechnology Information, 2016c; cited from earlier work.
The test system of a further data set is P. falciparum CDPK4. Also noted: method as in ref Crowther et al., 2016; National Center for Biotechnology Information, 2016b. Conditions: query of shape-based model, ref Crowther et al., 2016, National Center for Biotechnology Information, 2016b; cited from earlier work.
Another data set relates to P. falciparum CDPK1. Also on record: method as in ref Crowther et al., 2016; National Center for Biotechnology Information, 2016a. The note with it: query of shape-based model, ref Crowther et al., 2016, National Center for Biotechnology Information, 2016a; cited from earlier work.
[6] abbreviates: 3D7 strain, 72 h, mean ± SD of three independent assays, read-out: EC50 3D7.
[7] abbreviates: Dd2 strain, 72 h, mean ± SD of three independent assays.
[8] abbreviates: 3D7, both sensitive and multi-drug resistant P. falciparum strains (abstract), read-out: EC50 (antiplasmodial activity).
[9] abbreviates: 3D7 / DD2, both 3D7 and Dd2 strains, summary bound, read-out: EC50 (3D7 and Dd2 strains).

Read-outs that look alike come from different tables or passages of the source.

As for `COc1ccc(Nc2nc(C)c(N)c(Nc3ccc(OC)cc3)n2)cc1` [LabMol-170], the EC50 in data set [1] (setting [6]) stood at 1.14 ± 0.2 µM; in data set [2] (setting [7]), 2.02 ± 0.36 µM. The results for the CC50 at 72 h in [3] and in data set [4] were 7.59 ± 4.09 µM and 5.43 ± 2.39 µM, respectively. Besides, the “SI* (selectivity index between CC50 COS7 and EC50 3D7 strain)” value with COS7 cells is reported as 6.66. Besides, the “SI** (selectivity index between CC50 HEPG2 and EC50 3D7 strain)” value in the data set with HEPG2 cells stood at 4.76. Further, in data set [5], the inhibition at 10 µM is 11.2 ± 19.5%.
On to `CNC(=O)c1ccccc1Nc1nc(Nc2ccc(N3CCOCC3)cc2)ncc1Cl` [SID 307071719], for which, in the data set on P. falciparum PK6, the half-maximal inhibitory concentration (IC50) is 0.042 µM.
Turning to `Cc1[nH]c(/C=C2\C(=O)Nc3ccc(S(=O)(=O)Cc4c(Cl)cccc4Cl)cc32)c(C)c1C(=O)N1CCC[C@@H]1CN1CCCC1` [SID 307068815], the half-maximal inhibitory concentration (IC50) in the data set with P. falciparum CDPK4 was 0.021 µM.
In the case of `CC(Nc1nc(N2CCNCC2)nc2ccccc12)c1ccccc1` (stereo not drawn) [LabMol-176], the figures for the EC50 in data set [1] (setting [6]) and in [2] (setting [7]) were 1.15 ± 0.26 µM and 1.71 ± 0.4 µM, respectively. The values for the 50% cytotoxic concentration (CC50) at 72 h in data set [3] and in data set [4] were 34.9 ± 4.06 µM and 5.63 ± 1.51 µM, respectively. Moreover, the “SI* (selectivity index between CC50 COS7 and EC50 3D7 strain)” value in the data set on COS7 cells came to 30.33. In addition, the “SI** (selectivity index between CC50 HEPG2 and EC50 3D7 strain)” value in the data set on HEPG2 cells stood at 4.90. This molecule returned an inhibition at 10 µM in data set [5] of 20.5 ± 19.4%.
On to `CC(O)c1cccc(Nc2nc(NCCO)c3ccccc3n2)c1` (stereo not drawn) [LabMol-171], for which the EC50 in data set [1] (setting [8]) was not above 0.7 µM; in data set [1] (setting [9]), less than 1 µM; in [1] (setting [6]) it was 0.35 ± 0.08 µM; in data set [2] (setting [7]), 0.7 ± 0.41 µM. Moreover, the CC50 at 72 h in data set [3] came out at 48.4 ± 14 µM; in [4], 19.3 ± 3.69 µM. In the data set with COS7 cells, the “SI* (selectivity index between CC50 COS7 and EC50 3D7 strain)” value is listed as 138.26. In the data set with COS7 cells, this molecule gave a selectivity indices of more than 15 folds. The “SI** (selectivity index between CC50 HEPG2 and EC50 3D7 strain)” value with HEPG2 cells was determined as 55.17. This molecule showed an inhibition at 10 µM in data set [5] of 70 ± 22.2%.
For the molecule `c1ccc2c(NCC3CCCO3)nc(Nc3ccc4c(c3)OCO4)nc2c1` (stereo not drawn) [LabMol-181], the concentration for a half-maximal effect (EC50) is not above 0.7 µM in data set [1] (setting [8]), less than 1 µM in data set [1] (setting [9]), 0.39 ± 0.06 µM in data set [1] (setting [6]) and 0.4 ± 0.1 µM in data set [2] (setting [7]). Also, the half-maximal cytotoxic concentration (CC50) at 72 h in data set [3] came out at 18.3 ± 1.92 µM; in data set [4] it was 6.13 ± 2.05 µM. Also, the “SI* (selectivity index between CC50 COS7 and EC50 3D7 strain)” value in the data set with COS7 cells was determined as 46.90. Besides, the selectivity indices in the data set on COS7 cells is listed as more than 15 folds. Besides, the “SI** (selectivity index between CC50 HEPG2 and EC50 3D7 strain)” value in the data set on HEPG2 cells was 15.72. This molecule also showed an inhibition at 10 µM in [5] of 51.8 ± 23.2%.
For the molecule `COc1ccc(Nc2nc(Nc3ccc([N+](=O)[O-])cc3)nc(OC)n2)cc1` [LabMol-169], the results for the EC50 in data set [1] (setting [6]) and in data set [2] (setting [7]) were 8.77 ± 2.2 µM and 3.4 ± 1.68 µM, respectively. For the same molecule, the results for the half-maximal cytotoxic concentration (CC50) at 72 h in data set [3] and in [4] were 44.6 ± 3.73 µM and 19.9 ± 2.26 µM, respectively. For the same molecule, the “SI* (selectivity index between CC50 COS7 and EC50 3D7 strain)” value with COS7 cells is listed as 5.09. Besides, the “SI** (selectivity index between CC50 HEPG2 and EC50 3D7 strain)” value in the data set with HEPG2 cells came to 2.27. In data set [5], this molecule gave an inhibition at 10 µM of 8.58 ± 7.62%.
As for `O=C(NCCCN1CCCCC1)c1ccc(Nc2nccc(Nc3ccc(Oc4ccccc4)cc3)n2)cc1` [SID 307076176], the IC50 with P. falciparum CDPK1 is 0.094 µM.
Regarding `CC(O)c1cccc(Nc2nc(NCc3ccco3)c3ccccc3n2)c1` (stereo not drawn) [LabMol-172], the EC50 in data set [1] (setting [8]) was not above 0.7 µM; in data set [1] (setting [9]) it was less than 1 µM; in data set [1] (setting [6]) it was 0.43 ± 0.08 µM; in [2] (setting [7]) it was 0.48 ± 0.17 µM. In addition, the CC50 at 72 h in data set [3] was 12.1 ± 1.44 µM; in data set [4], 10.2 ± 5.53 µM. Further, the “SI* (selectivity index between CC50 COS7 and EC50 3D7 strain)” value in the data set with COS7 cells was determined as 28.16. For the same molecule, the selectivity indices in the data set with COS7 cells was more than 15 folds. Moreover, the “SI** (selectivity index between CC50 HEPG2 and EC50 3D7 strain)” value in the data set on HEPG2 cells came out at 23.74. The molecule further yielded an inhibition at 10 µM in [5] of 8.59 ± 13%.
For the molecule `CCn1c(-c2nonc2N)nc2c(-c3cccc(NC(=O)Nc4cccc(C(F)(F)F)c4)c3)ncc(OCCCN)c21` [SID 307073749], in the data set on P. falciparum CDPK1, the IC50 is 0.015 µM.
As for `CCN(CC)CCCC(C)Nc1ccnc2cc(Cl)ccc12` (stereo not drawn) [Chloroquine, reference compound], the EC50 was determined as 0.02 ± 0.01 µM in data set [1] (3D7, 72 h, read-out: EC50 3D7) and 0.15 ± 0.04 µM in data set [2] (DD2, 72 h).
For `O=C(NCCO)c1cccc(Nc2nc(-c3ccccc3)c3cc(Cl)ccc3n2)c1` [LabMol-175], the EC50 in data set [1] (setting [6]) is more than 5 µM. Also, the inhibition at 10 µM in data set [5] stood at 12.9 ± 22.3%.
Taken in the same sequence, the figures for `Cc1cc(NCCCN2CCN(C)CC2)nc(-c2ccccc2O)n1` [LabMol-174] were more than 5 µM and 21.4 ± 36.7%.
On the same counts, the results for `CN1CCN(CCC2CCCCN2Cc2ccnc3ccccc23)CC1` (stereo not drawn) [LabMol-173] are more than 5 µM and 0%.
Consider `CC(C)(CN)c1nc(-c2ccc(Cl)c(O)c2)c(-c2ccnc(N)n2)[nH]1` [SID 307078537], for which the concentration for half-maximal inhibition (IC50) in the data set with P. falciparum CDPK1 was 0.007 µM.
In the case of `Cc1ccc(-c2nc(NCc3cnc(C)cn3)ncc2-c2ccc(N)nc2)cc1` [LabMol-177], in data set [1] (setting [6]), the 50% effective concentration (EC50) is more than 5 µM. In addition, at 10 µM the inhibition in data set [5] was 8.76 ± 15.2%.
